What was measured:
[1] = tested on: streptozotocin-induced diabetic rats; assay: Chronic oral treatment of streptozotocin-induced diabetic rats, glycemia; assay type: in vivo, rat; conditions: for glycemia: oral, after the dosage increase to 10 μmol/kg/day; for effect on glycemia over the whole oral treatment, in words: streptozotocin (45 mg/kg) diabetic rats, daily oral administration for 17 days
Protocol: FIG. 4 is a graphical illustration of the chronic and oral treatment with hexaquis(benzylammonium) decavanadate on glycemia of diabetic rats by estreptozotocine. In FIG. 4, [G] corresponds to the blood concentration of glucose (expressed in mg/dl) measured at different days of treatment (t/d). Diabetic rats were treated with a single daily oral dose of hexaquis(benzylammonium) decavanadate (5 μmol/kg/day between day 0 and day 7 marked with an arrow, and 10 μmol/kg/day from 7 days of treatment) (black squares) or with identical dose of sodium decavanadate (black diamonds). Glycemia in non-diabetic rats is also represented in the figure (black triangles).
Diabetes was induced in rats by intravenous administration of streptozotocin, and subsequently, a hexaquis(benzylammonium) decavanadate or sodium decavanadate unique dose was administered to the rats. […] After seven days of treatment, the dose was increased at 10 μmol/kg/day which was maintained for an additional ten days. […] Thus, glycemia in sodium decavanadate treated rats was approximately 450 mg/dl and glycemia of hexaquis(benzylammonium) decavanadate treated rats was approximately 250 mg/dl.
(§1) Male Wistar rats weighting 180-220 g were purchased from Harlan (Interfauna Ibérica S.A., Spain). Diabetes was induced by a single intraperitoneal injection of a freshly prepared solution of streptozotocin (in some studies the dose was 45 mg/kg body weight and in some others 100 mg/kg body weight dissolved in 50 mM citrate buffer, pH 4.5). Only diabetic animals with glycemia above 300 mg/dl were used. The animals were housed in animal quarters at 22° C. with a 12 h light/12 h dark cycle and were fed ad libitum. All procedures used were approved by the animal ethical committee of the University of Barcelona, Spain. Male mice C57 BL/Ks bearing the db/db mutation (Jackson Laboratories, Bar Harbor, Me.) were purchased from Harlan France (Gannat, France). C57BL/6J male mice were assigned for 16 weeks to very high-fat diet containing (in kcal): 72% from fat, 28% from proteins and <1% from carbohydrates (Burcelin et al., 2002, Am. J. Physiol. Endocrinol. Metab 282: E834-E842).
(§2) Osmotic minipumps delivering B6V10 (2.5 μmol/kg body wt/day) or decavanadate (2.5 μmol/kg body wt/day) were implanted subcutaneously in diabetic rats anaesthetised by ketamine hydrochloride (95 mg/kg) and xylasine (10 mg/kg). […] Glycemia was measured on arterio-venous blood collected from the tail vessels at 09:00 am for two weeks, before the administration of vanadate. Insulin concentrations were determined before and after treatment. In another set of experiments, B6V10 was orally administered at a single dose of 5 μmol/kg/day during the first week and 10 μmol/kg/day during 2 additional weeks by gastric gavage. A control group received the corresponding decavanadate salt in the absence of benzylamine. At the end of the treatment, animals were sacrificed and the liver, fat pad, heart and lung were kept at −80° C. and the plasma at −20° C. until their use for in vitro analysis.
(§3) In glucose tolerance tests and in chronic treatments, circulating glucose concentrations were determined by a rapid glucose analyser (Accutrend® Sensor Comfort, Roche, Basel. Switzerland). Plasma insulin (IRI) concentration was determined by ELISA method using a kit obtained from Crystal Chem. Inc. (Downers Grove, Ill.). Plasma triglycerides (Biosystems, Barcelona, Spain) and NEFAS (Wako Chemicals, Neuss, Germany) were determined with standard […] methods.
Chronic in vivo efficacy of B6V10 was evaluated in streptozotocin-induced diabetic rats and in db/db mice. Streptozotocin-induced (45 mg/kg) diabetic rats were subcutaneously treated with hexaquis(benzylammonium) decavanadate (2.5 μmol/kg) (B6V10, solid squares, FIG. 8A) or with decavanadate (2.5 μmol/kg) (V10, open circles, FIG. 8A) delivered subcutaneously by osmotic minipumps implanted in the dorsal region. Diabetic rats were also sham-operated (untreated, solid diamonds, FIG. 8A). […]

[2] = tested on: protein kinase B / insulin receptor phosphorylation; assay: Intracellular insulin signalling in isolated rat adipocytes (protein kinase B and insulin receptor phosphorylation); assay type: cell-based, Wistar rats
Protocol: Isolated fat cells were disrupted for total membrane preparation by hypo-osmotic lysis in a 20 mM HES buffer and an antiprotease and antiphosphatase cocktail as reported by Abella et al. (2003, Diabetes 52: 1004-1013). Protein concentrations were determined by the Bradford method (Bradford, 1976, Anal. Biochem. 72: 248-254) with gamma-globulin as protein concentration standard. Immunoprecipitation and immunoblot assays were performed as previously described by Abella et al. (2004, Diabetologia 47: 429-438) with the use of a monoclonal antiphosphotyrosine antibody for the immunoprecipitation and an anti-insulin receptor antibody for immunobloting, respectively. SDS-polyacrylamide gel electrophoresis was performed on membrane proteins following conventional procedures. Proteins were transferred to Immobilon and immunoblotting was performed as reported by Castello et al. (1994, J. Biol. Chem. 269: 5905-5912).
The mechanism of action of B6V10 was investigated in isolated rat adipocytes. Adipose cells from Wistar rats were incubated for different times in the presence of 25 μM hexaquis(benzylammonium) decavanadate (B6V10). Cells were also incubated in the presence of insulin (100 nM, 45 min), decavanadate (25 μM, 45 min) or semicarbazide (1 mM, 45 min). Subsequently, 2-deoxyglucose uptake (results shown in FIG. 7A), tyrosine phosphorylation of insulin receptor (FIG. 7B), phospho-Thr^308-protein kinase B (FIG. 7C) and phospho-Ser^473-protein kinase B (FIG. 7D) was measured. […] The phosphorylation of protein kinase B induced by B6V10 was parallel to activation of glucose transport (FIGS. 7C and 7D).
The effects of incubation with semicarbazide or phosphatidylinositol 3-kinase inhibitors were also investigated. Adipose cells were incubated with B6V10 (25 μM, 45 min) in the absence or presence of wortmannin (2 μM, 45 min), LY294002 (10 μM, 45 min) or semicarbazide (1 mM, 45 min) and thereafter 2-deoxyglucose uptake was determined during 5 min.

[3] = tested on: streptozotocin-induced diabetic rats; assay type: in vivo, rat; conditions: for effect on glycemia / circulating glucose, in words: 2.5 μmol/kg subcutaneous minipumps
Protocol: as §1, §2, §3
To this end, rats were made diabetic by the injection of a large dose of streptozotocin (100 mg/kg) that eliminates β-pancreatic insulin content. […] These streptozotocin-induced diabetic rats were subcutaneously treated with B6V10 (2.5 μmol/kg) (solid squares, FIG. 9A) delivered by osmotic minipumps or left untreated (solid circles, FIG. 9A). Sham-operated nondiabetic rats were also untreated (solid triangles, FIG. 9A).
The concentration of circulating glucose under these conditions was also assayed. After 28 days of treating diabetic rats with hexaquis(benzylammonium) decavanadate (2.5 μmol/kg) (wide striped bars, FIG. 9B), or with decavanadate (close striped bars, FIG. 9B) delivered by osmotic minipumps, plasma insulin and glucose were measured. Untreated diabetic (solid bars, FIG. 9B) or nondiabetic rats (open bars, FIG. 9B) were similarly assayed as controls.

[4] = streptozotocin 100 mg/kg, 2.5 μmol/kg minipumps, 28 days

Substance	time at which decrease of hyperglycemia was detected ([1]; oral 5 μmol/kg/day)	effect on hyperglycemia, in words ([1]; oral 5 μmol/kg/day for seven days)	effect of the dosage increase on glycemia, in words ([1]; oral 10 μmol/kg/day for an additional ten days after seven days at 5 μmol/kg/day)	glycemia [1]	effect on glycemia over the whole oral treatment, in words [1]	effect of semicarbazide on protein kinase B phosphorylation induced by the compound ([2]; 1 mM semicarbazide, 45 min)	earliest time at which protein kinase B phosphorylation was detectable ([2]; isolated rat adipocytes, 25 μM) [min]	phosphorylation (activation) of protein kinase B, in words ([2]; isolated rat adipocytes, 25 μM)	tyrosine phosphorylation of insulin receptors ([2]; isolated rat adipocytes, 25 μM)	effect on body weight or organ weights ([3]; rat, in vivo)	plasma glucose after 28 days of treatment [3, 4]	plasma insulin after 28 days of treatment [3, 4]	effect on glycemia / circulating glucose, in words ([3]; streptozotocin 100 mg/kg)	effect on glycemia over the whole oral treatment, in words ([1]; listed as sodium decavanadate)
hexaquis(benzylammonium) decavanadate [Example B6V10]	after but two days of treatment	moderate decrease of hyperglycemia	additional decrease in glycemia	approximately 250 mg/dl	significant correction of hyperglycemia	blocked by semicarbazide	2.5	rapidly stimulated protein kinase B	undetectable	did not affect body weight or organ weights	plasma glucose was reduced	without any observable change in the amount of insulin	reducing glycemia	–
sodium decavanadate [Example V10, reference compound]	–	–	–	approximately 450 mg/dl	did not alter glycemia	–	–	not observed	–	–	–	–	did not show any change in circulating glucose	not affected substantially

Reference: patent US20080070987A1, “META-XYLYLENEDIAMINE VANADATE SALTS” (priority 2006, published 2008)
